Assays:
[1] = system: IFNα-induced STAT phosphorylation (pSTAT5); assay: IFNα-induced STAT phosphorylation in human whole blood; format: cell-based; conditions: 1 h compound, 1000 U/mL IFNα A/D 15 min, CD3 positive population, read-out: Human Whole blood IFNa pSTAT5 IC50
Experimental: IFNα-Induced STAT Phosphorylation in Human Whole Blood
After an hour long incubation with compound, human whole blood (drawn with ACD-A as anticoagulant) was stimulated with 1000 U/mL recombinant human IFNα A/D (R&D Systems 11200-2) for 15 min. The stimulation was stopped by adding Fix/Lyse buffer (BD 558049). Cells were stained with a CD3 FITC antibody (BD 555916), washed, and permeabilized on ice using Perm III buffer (BD 558050). Cells were then stained with an Alexa-Fluor 647 pSTAT5 (pY694) antibody (BD 612599) for 60 min prior to analysis on the iQue Plus. The amount of pSTAT5 expression was quantitated by median fluorescence intensity after gating on the CD3 positive population.

in vitro = conditions: human, Caco-2, pH 7.4

Compound | IC50 [1] | Papp A→B at 2 h, 3 μM (in vitro) | efflux ratio at 2 h, 3 μM (in vitro) | Papp B→A at 2 h, 3 μM (in vitro)
CNC(=O)c1nnc(NC(=O)C2CC2)cc1Nc1cccc(-c2cnn(CCF)n2)c1OC [Example 2, 6-cyclopropaneamido-4-({3-[2-(2-fluoroethyl)-2H-1,2,3-triazol-4-yl]-2-methoxyphenyl}amino)-N—(^2H3)methylpyridazine-3-carboxamide] | 30 nM | – | – | –
CNC(=O)c1nnc(NC(=O)C2CC2)cc1Nc1cccc(-c2cnn(CC(F)F)n2)c1OC [Example 3, 6-cyclopropaneamido-4-({3-[2-(2,2-difluoroethyl)-2H-1,2,3-triazol-4-yl]-2-methoxyphenyl}amino)-N—(^2H3)methylpyridazine-3-carboxamide] | 220 nM | – | – | –
[2H]C([2H])([2H])NC(=O)c1nnc(Nc2ccccn2)cc1Nc1cccc(-c2cnn(C)n2)c1OC [Example 8, 4-{[2-methoxy-3-(2-methyl-2H-1,2,3-triazol-4-yl)phenyl]amino}-N—(^2H3)methyl-6-[(pyridin-2-yl)amino]pyridazine-3-carboxamide] | 230 nM | 1.9 ×10⁻⁶ cm/s | < 0.8 | –
CCn1ncc(-c2c(F)ccc(Nc3cc(NC(=O)C4CC4)nnc3C(=O)NC)c2OC)n1 [Example 10, 6-cyclopropaneamido-4-{[3-(2-ethyl-2H-1,2,3-triazol-4-yl)-4-fluoro-2-methoxyphenyl]amino}-N—(^2H3)methylpyridazine-3-carboxamide] | 290 nM | – | – | –
CNC(=O)c1nnc(NC(=O)[C@@H]2CC23CC3)cc1Nc1cccc(-c2cnn(C)n2)c1OC [Example 13, 4-{[2-methoxy-3-(2-methyl-2H-1,2,3-triazol-4-yl)phenyl]amino}-N—(^2H3)methyl-6-[(1R)-spiro[2.2]pentane-1-amido]pyridazine-3-carboxamide] | 170 nM | – | – | –
CNC(=O)c1nnc(NC(=O)C2CC2)cc1Nc1ccc(F)c(-c2cnn(C)n2)c1OC [Example 18, 6-cyclopropaneamido-4-{[4-fluoro-2-methoxy-3-(2-methyl-2H-1,2,3-triazol-4-yl)phenyl]amino}-N—(^2H3)methylpyridazine-3-carboxamide] | 230 nM | – | – | –
[2H]C([2H])([2H])NC(=O)c1nnc(NC(=O)C2CC2)cc1Nc1cccc(-c2nn(C)nc2C)c1OC [Example 23, 6-(cyclopropane-carboxamido)-4-((3-(2,5-dimethyl-2H-1,2,3-triazol-4-yl)-2-methoxyphenyl)amino)-N-(methyl-d3)pyridazine-3-carboxamide] | 180 nM | 29.5 ×10⁻⁶ cm/s | 1.2 | –
CNC(=O)c1nnc(NC(=O)N2CCC2)cc1Nc1cccc(-c2cnn(C)n2)c1OC [Example 51, 6-[(azetidine-1-carbonyl)amino]-4-{[2-methoxy-3-(2-methyl-2H-1,2,3-triazol-4-yl)phenyl]amino}-N—(^2H3)methylpyridazine-3-carboxamide] | 110 nM | – | – | –
CNC(=O)c1nnc(NC(=O)C2CC2)cc1Nc1cccc(-c2cnn(C3COC3)n2)c1OC [Example 53, 6-cyclopropaneamido-4-({2-methoxy-3-[2-(oxetan-3-yl)-2H-1,2,3-triazol-4-yl]phenyl}amino)-N—(^2H3)methylpyridazine-3-carboxamide] | 170 nM | – | – | –
CCN(C)C(=O)Nc1cc(Nc2nccc(-c3cnn(C)n3)c2OC)c(C(=O)NC)nn1 [Example 58, 6-{[ethyl(methyl)carbamoyl]amino}-4-{[3-methoxy-4-(2-methyl-2H-1,2,3-triazol-4-yl)pyridin-2-yl]amino}-N—(^2H3)methylpyridazine-3-carboxamide] | 230 nM | – | – | –
CNC(=O)c1nnc(NC(=O)N(C)C(C)C)cc1Nc1nccc(-c2cnn(C)n2)c1OC [Example 59, 4-{[3-methoxy-4-(2-methyl-2H-1,2,3-triazol-4-yl)pyridin-2-yl]amino}-N—(^2H3)methyl-6-{[methyl(propan-2-yl)carbamoyl]amino}pyridazine-3-carboxamide] | 250 nM | – | – | –

Now from value to molecule:

IC50 [1] | Papp A→B at 2 h, 3 μM (in vitro) | efflux ratio at 2 h, 3 μM (in vitro) | Papp B→A at 2 h, 3 μM (in vitro) | Compound
20 nM | 7.4 ×10⁻⁶ cm/s | 0.9 | – | [2H]C([2H])([2H])NC(=O)c1nnc(Nc2cc(C)n(C)n2)cc1Nc1cccc(-c2cnn(C)n2)c1OC [Example 6, 6-[(1,5-dimethyl-1H-pyrazol-3-yl)amino]-4-{[2-methoxy-3-(2-methyl-2H-1,2,3-triazol-4-yl)phenyl]amino}-N—(^2H3)methylpyridazine-3-carboxamide]
230 nM | – | – | – | CNC(=O)c1nnc(NC(=O)C2CC2)cc1Nc1cc(F)cc(-c2cnn(C3CC3)n2)c1OC [Example 12, 6-cyclopropaneamido-4-{[3-(2-cyclopropyl-2H-1,2,3-triazol-4-yl)-5-fluoro-2-methoxyphenyl]amino}-N—(^2H3)methylpyridazine-3-carboxamide]
190 nM | – | – | – | CNC(=O)c1nnc(NC(=O)C2CC2)cc1Nc1nccc(-c2cnn(C3CC3)n2)c1OC [Example 14, 6-cyclopropaneamido-4-{[4-(2-cyclopropyl-2H-1,2,3-triazol-4-yl)-3-methoxypyridin-2-yl]amino}-N—(^2H3)methylpyridazine-3-carboxamide]
470 nM | – | – | – | CCn1ncc(-c2cc(Cl)cc(Nc3cc(NC(=O)C4CC4)nnc3C(=O)NC)c2OC)n1 [Example 15, 4-{[5-chloro-3-(2-ethyl-2H-1,2,3-triazol-4-yl)-2-methoxyphenyl]amino}-6-cyclopropaneamido-N—(^2H3)methylpyridazine-3-carboxamide]
1400 nM | – | – | – | CNC(=O)c1nnc(NC(=O)C2CC2)cc1Nc1ccc(F)c(-c2cnn(C3CC3)n2)c1OC [Example 16, 6-cyclopropaneamido-4-{[3-(2-cyclopropyl-2H-1,2,3-triazol-4-yl)-4-fluoro-2-methoxyphenyl]amino}-N—(^2H3)methylpyridazine-3-carboxamide]
40 nM | – | – | – | CNC(=O)c1nnc(NC(=O)C2CC2)cc1Nc1cc(C)cc(-c2cnn(C)n2)c1OC [Example 17, 6-cyclopropaneamido-4-{[2-methoxy-5-methyl-3-(2-methyl-2H-1,2,3-triazol-4-yl)phenyl]amino}-N—(^2H3)methylpyridazine-3-carboxamide]
430 nM | 18.8 ×10⁻⁶ cm/s | 0.7 | – | [2H]C([2H])([2H])NC(=O)c1nnc(NC(=O)C2CC2)cc1Nc1cc(F)c(C)c(-c2cnn(C)n2)c1OC [Example 19, 6-(cyclopropanecarboxamido)-4-((5-fluoro-2-methoxy-4-methyl-3-(2-methyl-2H-1,2,3-triazol-4-yl)phenyl)amino)-N-(methyl-d3)pyridazine-3-carboxamide]
210 nM | 17 ×10⁻⁶ cm/s | 1.1 | – | [2H]C([2H])([2H])NC(=O)c1nnc(NC(=O)C2CC2)cc1Nc1cccc(-c2nn(C)nc2CC)c1OC [Example 20, 6-(cyclopropanecarboxamido)-4-((3-(5-ethyl-2-methyl-2H-1,2,3-triazol-4-yl)-2-methoxyphenyl)amino)-N-(methyl-d3)pyridazine-3-carboxamide]
230 nM | 33.6 ×10⁻⁶ cm/s | 0.5 | – | [2H]C([2H])([2H])NC(=O)c1nnc(NC(=O)C2CC2)cc1Nc1cc(CC)cc(-c2cnn(C)n2)c1OC [Example 21, 6-(cyclopropanecarboxamido)-4-((5-ethyl-2-methoxy-3-(2-methyl-2H-1,2,3-triazol-4-yl)phenyl)amino)-N-(methyl-d3)pyridazine-3-carboxamide]
330 nM | 51.1 ×10⁻⁶ cm/s | 0.7 | – | [2H]C([2H])([2H])NC(=O)c1nnc(NC(=O)C2CC2)cc1Nc1c(F)ccc(-c2cnn(C)n2)c1OC [Example 22, 6-(cyclopropanecarboxamido)-4-((6-fluoro-2-methoxy-3-(2-methyl-2H-1,2,3-triazol-4-yl)phenyl)amino)-N-(methyl-d3)pyridazine-3-carboxamide]
20 nM | – | – | – | CNC(=O)c1nnc(NC(=O)C2CC2)cc1Nc1cccc(-c2cnn(C)n2)c1OC [Example 52, 6-cyclopropaneamido-4-({2-methoxy-3-[2-(^2H3)methyl-2H-1,2,3-triazol-4-yl]phenyl}amino)-N—(^2H3)methylpyridazine-3-carboxamide]
490 nM | – | – | – | CNC(=O)c1nnc(NC(=O)C2CC2)cc1Nc1cccc(-c2cnn(C3CCC3)n2)c1OC [Example 54, 4-{[3-(2-cyclobutyl-2H-1,2,3-triazol-4-yl)-2-methoxyphenyl]amino}-6-cyclopropaneamido-N—(^2H3)methylpyridazine-3-carboxamide]
480 nM | – | – | – | CNC(=O)c1nnc(NC(=O)C2CC2)cc1Nc1ccc(C2CC2)c(-c2cnn(C)n2)c1OC [Example 55, 6-cyclopropaneamido-4-{[4-cyclopropyl-2-methoxy-3-(2-methyl-2H-1,2,3-triazol-4-yl)phenyl]amino}-N—(^2H3)methylpyridazine-3-carboxamide]
290 nM | – | – | – | CNC(=O)c1nnc(NC(=O)C2CC2)cc1Nc1cccc(-c2cnn(C)n2)c1OC(F)F [Example 56, 6-cyclopropaneamido-4-{[2-(difluoromethoxy)-3-(2-methyl-2H-1,2,3-triazol-4-yl)phenyl]amino}-N—(^2H3)methylpyridazine-3-carboxamide]
130 nM | – | – | – | CNC(=O)c1nnc(NC(=O)C2CC2)cc1Nc1nccc(-c2cnn(C)n2)c1OC(F)F [Example 60, 6-cyclopropaneamido-4-{[3-(difluoromethoxy)-4-(2-methyl-2H-1,2,3-triazol-4-yl)pyridin-2-yl]amino}-N—(^2H3)methylpyridazine-3-carboxamide]
– | 2 ± 0.9 ×10⁻⁶ cm/s | 1.3 | 2.5 ± 1.1 ×10⁻⁶ cm/s | CC(C)(C)NCC(O)COc1cccc2c1CC(O)C(O)C2 (stereo not shown) [Nadolol, reference compound]

From patent publication US11866414B2, “Substituted heterocyclic compounds” (BRISTOL-MYERS SQUIBB COMPANY, priority 2021, dated 2024)
